Reference: US20130324413A1, “METHOD FOR PROMOTING PLANT GROWTH” (SUMITOMO CHEMICAL COMPANY, LIMITED, priority 2011, published 2013)

Columns and labels:
Assay type in all cases: in vivo
[1] = tested on: Corn (cultivar: PIONEER 120 31P41); assay: Test Example 13: corn soil irrigation, low-temperature stress, growth and chlorophyll; conditions: soil irrigation 20 ml, low-temperature stress 2 to 4° C. 5 days
Experimental: Corn seeds (cultivar: PIONEER 120 31P41) are sown in the culture soil (AISAI) in plastic pots (55 mm in diameter×58 mm in height) and grown for 7 days under the following conditions: temperature, 20 to 25° C.; humidity, 50 to 75%; illuminance, about 5,000 lux; day length, 16 hours. A DMSO solution of compound (1b) at a 1,000-fold concentration relative to each test concentration is diluted with distilled water to prepare a test soultion. Twenty (20) ml of the test solution obtained is applied around the base of each plant by soil irrigation, and then the plants are grown for two days under the following conditions: temperature, 27° C., humidity, 50 to 75%; illuminance, about 5,000 lux; day length 16 hours. This group is the present compound-treated group. The group to which 20 ml of a 0.1% aqueous DMSO solution is applied by soil irrigation in place of the DMSO solution of compound (1b) is used as the non-treated group. The plants subjected to the soil irrigation are grown for 5 days under the following conditions, to expose the plants to low-temperature stress: temperature, 2 to 4° C.; humidity, 40 to 70%, illuminance, about 5,000 lux; day length, 16 hours in a phytotron. After the exposure to low-temperature stress, the plants are grown for 4 days under the conditions of a temperature off20 to 25° C., a humidity of 50 to 75%, an illuminance of about 5,000 lux, and a day length of 16 hours. Then the plant weight and the length of true leaves are measured. Also, after the exposure to low-temperature stress, the plants are grown for 1 day under the conditions of a temperature of 20 to 25° C., a humidity of 50 to 75%, an illuminance of about 5,000 lux, and a day length of 16 hours. Then the chlorophyll fluorescence (Fv/Fm) is measured using a pulse modulation chlorophyll fluorometer (MAXI-IMAGING-PAM, WALZ). The chlorophyll content is measured using a chlorophyll gauge (SPAD-502; manufactured by KONICA MINOLTA).

[2] = tested on: Corn (cultivar: Hughes 5813); assay: Test Example 2: corn seed treatment, amount of harvested grains; conditions: grown 226 days
Experimental: Corn (cultivar: Hughes 5813) seeds were separately treated with 25 μg or 125 μg of compound (1b) for each seed. The amount of the compound required for the treatment was determined by calculation assuming 4,000 grains per kg of seeds. The seeds were coated using seed treatment machine HEGE11(produced by Hans-Ulrich Hege). All the seed treatments included Maxim XL (0.167 ounces/100 pounds), Thiram 42S (2.5 ounces/pound), and Cruiser (containing 0.25 mg/seed of thiamethoxam) and CF-Clear polymer at a concentration of 0.5 ounces/pound. The treated seeds were sown and grown for 226 days, and the corn plants were harvested to obtain grains. […] During the testing, no diseases were observed that affected the yield in the present compound-treated group and the non-treated group.

[3] = tested on: Corn (cultivar: DeKalb 61-69); assay: Test Example 4: field corn foliage spraying, percentage of green leaves; conditions: assessed 143 days after sowing (R6), non-treated 23.8%
From the text: Corn seeds (cultivar: DeKalb 61-69) were sown at 33,684 seeds per acre and grown. Each plot in the field for treatment measured 10 feet in width and 15.5 feet in length. The treatments were arranged using the Randomized Complete Block Design method with eight replications for each treatment. Groups treated with the formulation without compound (1b) were used as the non-treated groups, in which corn was cultivated in the same manner as in the present compound-treated groups. The flowable formulation prepared as described in Formulation Example 2 was applied by foliage spraying 111 days after the sowing, at developmental stage R3 of maize. The percentage of green leaves among the leaves upper to the lowest ear of corn was determined for each formulation-treated group 143 days after the sowing, at developmental stage R6 of maize. As a result, the percentages were 41.3% and 45.6% on average, respectively, in the groups treated with 100 g and 300 g per hectare of compound (1b), while the percentage was 23.8% on average in the non-treated groups.

[4] = tested on: oilseed rape (Brasicca napus); assay: Test Example 5: oilseed rape field application, percentage of green pods; conditions: flowable formulation, 250 g per hectare at day 253 (BBCH 65); assessed day 323 (BBCH 85); non-treated 12.75%
From the text: Seeds of oilseed rape (Brasicca napus) were sown and grown. At day 253 after the sowing, at growth stage 65, according to the Biologische Bundesanstalt, Bundessortenamt and CHemical industry (BBCH) scale, the flowable formulation prepared as described in Formulation Example 2 containing compound (1b) was applied in an amount of 250 g per hectare. A plot for the treatment measured 6 m×10 m. This plot was the present compound-treated group. A plot treated with the formulation without compound (1b) was used as the non-treated group, in which plants were cultivated in the same manner as in the present compound-treated group.
At day 323 after the sowing, when almost all the plants entered growth stage 85, according to the BBCH scale, the percentage of pods remaining green among the pods of the plants was examined and determined in both the present compound-treated and non-treated groups.

For CNC(=O)C(OC)c1ccccc1COc1cc(C)ccc1C (racemic) [Compound (1b), N-methyl-2-[2-(2,5-dimethylphenoxy)methyl]phenyl-2-methoxyacetamide], the “chlorophyll fluorescence (Fv/Fm) as compared with the non-treated group” value ([1]; then 1 day growth) was “increases”, the “length of true leaves as compared with the non-treated group” value ([1]; then 4 days growth) was “increased” and the “plant weight as compared with the non-treated group” value ([1]; then 4 days growth) was “increased”. The “chlorophyll content as compared with the non-treated group” value ([1]; chlorophyll gauge SPAD-502) was “increases”, the “increase in amount of the harvested grains as compared with the non-treated group” value ([2]; seeds treated with 25 μg per seed) was 11% and the “increase in amount of the harvested grains as compared with the non-treated group” value ([2]; seeds treated with 125 μg per seed) was 9%. The “percentage of green leaves among the leaves upper to the lowest ear (average)” value ([3]; foliage spraying 100 g per hectare at 111 days (R3)) was 41.3%, the “percentage of green leaves among the leaves upper to the lowest ear (average)” value ([3]; foliage spraying 300 g per hectare at 111 days (R3)) was 45.6% and the “percentage of green pods” value [4] was 22.25%.
